Laboratory results as given in patent US10238688B2, “Combination therapies for bladder cancer” (GENEDIA BIOTECH CO. LTD., priority 2015, dated 2019).

Columns and labels:
SV-HUC-1 = format: cell-based
Protocol: (§1) The clinical grade of the chemotherapeutics (NCI Dictionary of Cancer Terms) was provided by the First Affiliated Hospital of Harbin Medical University: Pirarubicin (Pi, Wanle, Shenzhen), Paclitaxel (Pa, Taiji, Sichuan), Adriamycin (Ad, Pfizer, Jiangsu), Epirubicin Hydrochloride (EH, Haizheng, Zhejiang), Hydroxycamptothecin (Hy, Lishizhen, Hubei), Cisplatin (Ci, Haosen, Jiangsu), Gemcitabine (Ge, Haosen, Jiangsu) and Mitomycin (Mi, Haizheng, Zhejiang). The drug induced cell death was determined by a thiazolyl […] (MTT, 490 nm reading) based cell proliferation assay in the cultured cells following treatment by various concentrations of drugs for 72 hours. The relative chemoresistance to each drug of all cell lines was calculated with the lowest IC50 as a reference. The overall chemoresistance of each cell line was described as “chemoresistance index”, the numerator of the total relative IC50 to all the drugs over the number of drugs to rank the overall resistance state of each cell line to the six chemotherapeutics collectively.
(§2) The relative IC50 (fold) of each drug of all nine cell lines was normalized to the lowest IC50 in the most sensitive cell line (FIG. 2G), to describe the single drug resistance of cell lines. The overall chemoresistance of each cell line, a “chemoresistance index” (the numerator of the total relative IC50 over the number of drugs) (FIG. 2G) were calculated to rank the overall resistance state of each cell line to this six chemotherapeutics.

J-82 = experiment: MTT cell survival / IC50, J-82 cells; format: cell-based, human; details: J82; Table S3; ng/ml: Pi 40, Pa 160, EH 250, Ci 1500, Mi 200; 1=Ci/Mi, 2=EH/Ci/Mi, 3=Pa/Ci/Mi, 4=Pi/Ci/Mi
Protocol: as §1, §2
(§3) Twenty six-drug combinations at the indicated doses were initially generated through a random number generator (using MATLAB MathWorks©, Natick, Mass., U.S.) (The upper half of Table 1). The cell survival (% over the not drug control) of treated cells was determined and then used for a calculation of the average cumulative cell survival (%, ACS: the sum of cell survival (%) per combination divided by the number of cell lines tested). ACS<30% was used to separate the effective from the not-effective combinations.

[1] = test system: nine cancer-associated signaling pathways; experiment: Pearson correlation of collective drug-triggered pathway activities (single drug versus EH/Ci/Mi regimen)
Source text: To calculate the correlation coefficients between the two cell lines, the R language statistics function “cor{stats}” was used to generate the correlation matrix between multiple cell lines.
This example then determined the correlation coefficient between the overall activity of these nine pathways and the chemoresistance state of these five cell lines. […] The overall state of activity of these pathways in each cell line are summarized (FIG. 4E) and the correlation coefficient of each pair of cell lines is calculated (FIG. 4F).

5637 = experiment: MTT cell survival / IC50, 5637 cells; format: cell-based, human
Protocol: as §1, §2, §3

ER Stress pathway = experiment: Cignal Finder dual-luciferase pathway reporter, ER Stress; format: cell-based, human; details: for Relative activity, ER Stress reporter: luc/Renluc relative to negative control reporter, single drug at 4 folds vs EH/Ci/Mi combination
Protocol: (§4) The pathway analysis was performed with Qiagen's Cignal Finder Pathway Reporter Array systems according to the manufacturer's instructions. The pathway-focused dual-luciferase reporter construct was a mixture of an inducible transcription factor responsive firefly luciferase reporter and constitutively expressing renilla construct. Transcriptional response element (TRE) sequence response elements to each specific transcriptional factor triggered by the different signaling pathways are positioned before the TATA box of firefly luciferase reporter gene. The extent of activity of the reporter reflects the level of activity of the particular signaling pathway. CMV controlled renilla expression vector is co-transfected into the cell as an internal control. Non-inducible reporter construct that lacks the transcriptional factor binding sequence and could not be induced by any transcription factors is used as a negative control. Cells transfected with CMV directed firefly luciferase reporter gene serve as a positive control. Briefly, cells seeded in 6-well plates were transfected with Cignal finder pathway arrays according to the manufacturer's instructions (Qiagen). Then cells were seeded onto 96-well plates. Ci (6000 ng/mL), Mi (800 ng/mL), or EH (1000 ng/mL) and Ci/Mi/EH combination (Ci, 1500 ng/mL, Mi, 800 ng/mL and EH, 1000 ng/m L) were then added to the cells 24 h post-transfection. After 6 h of incubation with the different drugs at 37° C., cells were lysed and a dual luciferase assay (for firefly and renilla luciferase) was performed using a PromegaGloMax 20/20 illuminometer. The firefly luciferase activities were normalized over the renilla luciferase activities after background activity determined by luciferase activities of negative controls was subtracted. A triple test of cell survival under these drug doses was also performed by MTT assay following 18 h incubation at 37° C. […]

Wnt pathway = experiment: Cignal Finder dual-luciferase pathway reporter, Wnt; format: cell-based, human; design: key to Relative activity, Wnt reporter: firefly/renilla ratio, background (negative control) subtracted; details: for Relative activity, Wnt reporter: luc/Renluc relative to negative control reporter, single drug at 4 folds vs EH/Ci/Mi combination;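 as to digitalized pathway activity, Wnt: code −1 means repressed below 0.5-fold of 5637 cells or no-drug control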
Protocol: as §4

[2] = test system: Cell Cycle/pRb-E2F pathway; experiment: Cignal Finder dual-luciferase pathway reporter, Cell Cycle/pRb-E2F; format: cell-based, human; design: key to Relative activity, Cell Cycle/pRb-E2F reporter: firefly/renilla ratio, background (negative control) subtracted; details: for Relative activity, Cell Cycle/pRb-E2F reporter: luc/Renluc relative to negative control reporter, single drug at 4 folds vs EH/Ci/Mi combination
Protocol: as §4

COc1cccc2c1C(=O)c1c(O)c3c(c(O)c1C2=O)C[C@@](O)(C(=O)CO)C[C@@H]3[C@@H]1C[C@H](N)[C@@H](O)[C@H](C)O1 [EH, (8R,10S)-10-((2S,4S,5R,6S)-4-amino-5-hydroxy-6-methyltetrahydro-2H-pyran-2-yl)-6,8,11-trihydroxy-8-(2-hydroxyacetyl)-1-methoxy-7,8,9,10-tetrahydrotetracene-5,12-dione]
Single drug 4X Cell Survival (%) (SV-HUC-1; SV-HUC-1, ng/ml: EH 1000, Ci 6000, Mi 800, Pi 160, Pa 640, Ge 20, EH/Ci/Mi regimen): 61.89% | Cell survival 72 hours (SV-HUC-1; SV-HUC-1 cells, Table 4 (A)): 61.89% | ACS (%) (SV-HUC-1; SV-HUC-1 cells, Table 4 (B)): 61.89% | Cell survival (%) (J-82): 45.03% | Correlation coefficients versus EH/Ci/Mi ([1]; 5637 cells): 0.9177 | Correlation coefficients versus EH/Ci/Mi ([1]; Biu87 cells): 0.982 | Correlation coefficients versus EH/Ci/Mi ([1]; H-bc cells): 0.9707 | Correlation coefficients versus EH/Ci/Mi ([1]; SV-HUC-1 cells): 0.9449 | Correlation coefficients versus EH/Ci/Mi ([1]; UmUc3 cells): 0.3712 | Cell survival (%) (5637; 5637, Table S3, ng/ml: Pi 40, Pa 160, EH 250, Ci 1500, Mi 200, 1=Ci/Mi, 2=EH/Ci/Mi, 3=Pa/Ci/Mi, 4=Pi/Ci/Mi): 14.75% | Single drug 4X Cell Survival (%) (5637; 5637, ng/ml: EH 1000, Ci 6000, Mi 800, Pi 160, Pa 640, Ge 20, EH/Ci/Mi regimen): 2.23% | Cell survival 72 hours (5637; 5637 cells, Table 4 (A)): 2.23% | ACS (%) (5637; 5637 cells, Table 4 (B)): 2.23% | relative drug trigged pathway activity over the no-drug level, ER Stress (ER Stress pathway; 5637 cells): 3.26 fold | Relative activity, ER Stress reporter (ER Stress pathway; 5637 cells): 84.76 | relative drug trigged pathway activity over the no-drug level, ER Stress (ER Stress pathway; Biu87 cells): 1.66 fold | Relative activity, ER Stress reporter (ER Stress pathway; Biu87 cells): 36.36 | digitalized pathway activity, ER Stress (ER Stress pathway; H-bc cells): 0 (null (0) if neither of the above holds) | relative drug trigged pathway activity over the no-drug level, ER Stress (ER Stress pathway; H-bc cells): 1.38 fold | Relative activity, ER Stress reporter (ER Stress pathway; H-bc cells): 28.61 | relative drug trigged pathway activity over the no-drug level, ER Stress (ER Stress pathway; SV-HUC-1 cells): 2.93 fold | Relative activity, ER Stress reporter (ER Stress pathway; SV-HUC-1 cells): 300.00 | digitalized pathway activity, ER Stress (ER Stress pathway; UM-UC-3 cells): 0 (null (0) if neither of the above holds) | Relative activity, ER Stress reporter (ER Stress pathway; UM-UC-3 cells): 120.98 | relative drug trigged pathway activity over the no-drug level, ER Stress (ER Stress pathway; Um-Uc-3 cells): 1.48 fold | digitalized pathway activity, Wnt (Wnt pathway; 5637 cells): 0 (null (0) if neither of the above holds) | relative drug trigged pathway activity over the no-drug level, Wnt (Wnt pathway; 5637 cells): 1.19 fold | Relative activity, Wnt reporter (Wnt pathway; 5637 cells): 1.04 | digitalized pathway activity, Wnt (Wnt pathway; Biu87 cells): 0 (null (0) if neither of the above holds) | relative drug trigged pathway activity over the no-drug level, Wnt (Wnt pathway; Biu87 cells): 0.95 fold | Relative activity, Wnt reporter (Wnt pathway; Biu87 cells): 1.57 | digitalized pathway activity, Wnt (Wnt pathway; H-bc cells): 0 (null (0) if neither of the above holds) | relative drug trigged pathway activity over the no-drug level, Wnt (Wnt pathway; H-bc cells): 1.03 fold | Relative activity, Wnt reporter (Wnt pathway; H-bc cells): 1.10 | digitalized pathway activity, Wnt (Wnt pathway; SV-HUC-1 cells): 0 (null (0) if neither of the above holds) | relative drug trigged pathway activity over the no-drug level, Wnt (Wnt pathway; SV-HUC-1 cells): 1.05 fold | Relative activity, Wnt reporter (Wnt pathway; SV-HUC-1 cells): 1.30 | digitalized pathway activity, Wnt (Wnt pathway; UM-UC-3 cells): 0 (null (0) if neither of the above holds) | Relative activity, Wnt reporter (Wnt pathway; UM-UC-3 cells): 4.12 | relative drug trigged pathway activity over the no-drug level, Wnt (Wnt pathway; Um-Uc-3 cells): 1.15 fold | relative drug trigged pathway activity over the no-drug level, Cell Cycle/pRb-E2F ([2]; 5637 cells): 5.15 fold | Relative activity, Cell Cycle/pRb-E2F reporter ([2]; 5637 cells): 4.67 | relative drug trigged pathway activity over the no-drug level, Cell Cycle/pRb-E2F ([2]; Biu87 cells): 3.95 fold | Relative activity, Cell Cycle/pRb-E2F reporter ([2]; Biu87 cells): 2.24 | digitalized pathway activity, Cell Cycle/pRb-E2F ([2]; H-bc cells): 0 (null (0) if neither of the above holds) | relative drug trigged pathway activity over the no-drug level, Cell Cycle/pRb-E2F ([2]; H-bc cells): 1.47 fold | Relative activity, Cell Cycle/pRb-E2F reporter ([2]; H-bc cells): 4.44 | relative drug trigged pathway activity over the no-drug level, Cell Cycle/pRb-E2F ([2]; SV-HUC-1 cells): 2.45 fold | Relative activity, Cell Cycle/pRb-E2F reporter ([2]; SV-HUC-1 cells): 12.00 | Relative activity, Cell Cycle/pRb-E2F reporter ([2]; UM-UC-3 cells): 17.25 | relative drug trigged pathway activity over the no-drug level, Cell Cycle/pRb-E2F ([2]; Um-Uc-3 cells): 2.91 fold
